In the supplement of paper PMC10307832:

Key:
Assay in all cases: relative viability (nuclei count vs DMSO), 5 days (fraction); higher = more cells survive
NCI-H1299 = tested on: NCI-H1299
Summary of the method: (§1)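 For relative viability, nuclei counts in treated wells were divided by those in vehicle wells. Lung cancer cell lines had been pin-tool dosed in 1536-well plates the day after seeding and cultured for 5 days, then fixed and stained in one step (final 0.05% Triton X-100, 1% formaldehyde, 1 ug/ml Hoechst) and imaged at 4×. Doses were one drug alone or a fixed anchor-drug dose plus five library-drug doses (not always all listed) in √10 steps, and values are duplicate-plate medians.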

A549 = tested on: A549
Summary of the method: as §1

NCI-H1563 = tested on: NCI-H1563
Summary of the method: as §1

EBC-1 = tested on: EBC-1
Summary of the method: as §1

NCI-H2087 = tested on: NCI-H2087
Summary of the method: as §1

NCI-H322M = tested on: NCI-H322M
Summary of the method: as §1

HCC-78 = tested on: HCC-78
Summary of the method: as §1

Calu-6 = tested on: Calu-6
Summary of the method: as §1

NCI-H1703 = tested on: NCI-H1703
Summary of the method: as §1

HCC-44 = tested on: HCC-44
Summary of the method: as §1

IA-LM = tested on: IA-LM
Summary of the method: as §1

For `CCNC(=O)c1noc(-c2cc(C(C)C)c(O)cc2O)c1-c1ccc(CN2CCOCC2)cc1` [Luminespib] + C[C@@H](Oc1cc(-c2cnn(C3CCNCC3)c2)cnc1N)c1c(Cl)ccc(F)c1Cl [Crizotinib] (partner 1 µM), the relative viability (NCI-H1299; first compound 0.002 µM) was 0.953, the relative viability (NCI-H1299; first compound 0.006325 µM) was 0.953 and the relative viability (NCI-H1299; first compound 0.02 µM) was 1.01. It also gave a relative viability (NCI-H1299; first compound 0.06325 µM) of 0.915, a relative viability (NCI-H1299; first compound 0.2 µM) of 0.229 and a relative viability (A549; first compound 0.002 µM) of 0.861. It also gave a relative viability (A549; first compound 0.006325 µM) of 0.593, a relative viability (A549; first compound 0.02 µM) of 0.51 and a relative viability (A549; first compound 0.06325 µM) of 0.0411. The relative viability (A549; first compound 0.2 µM) was 0.0426, the relative viability (NCI-H1563; first compound 0.002 µM) was 0.937 and the relative viability (NCI-H1563; first compound 0.006325 µM) was 0.834. It also gave a relative viability (NCI-H1563; first compound 0.02 µM) of 0.811, a relative viability (NCI-H1563; first compound 0.06325 µM) of 0.473 and a relative viability (NCI-H1563; first compound 0.2 µM) of 0.536. The relative viability (EBC-1; first compound 0.002 µM) was 0.196, the relative viability (EBC-1; first compound 0.006325 µM) was 0.195 and the relative viability (EBC-1; first compound 0.02 µM) was 0.179. The relative viability (EBC-1; first compound 0.06325 µM) was 0.173, the relative viability (EBC-1; first compound 0.2 µM) was 0.165 and the relative viability (NCI-H2087; first compound 0.002 µM) was 0.934. The relative viability (NCI-H2087; first compound 0.006325 µM) was 0.684, the relative viability (NCI-H2087; first compound 0.02 µM) was 0.875 and the relative viability (NCI-H2087; first compound 0.06325 µM) was 0.156. For the same compound, the relative viability (NCI-H2087; first compound 0.2 µM) was 0.145, the relative viability (NCI-H322M; first compound 0.002 µM) was 0.925 and the relative viability (NCI-H322M; first compound 0.006325 µM) was 0.924. It also gave a relative viability (NCI-H322M; first compound 0.02 µM) of 0.718, a relative viability (NCI-H322M; first compound 0.06325 µM) of 0.898 and a relative viability (NCI-H322M; first compound 0.2 µM) of 0.808. For the same compound, the relative viability (HCC-78; first compound 0.002 µM) was 0.302, the relative viability (HCC-78; first compound 0.06325 µM) was 0.337 and the relative viability (HCC-78; first compound 0.2 µM) was 0.232. The relative viability (Calu-6; first compound 0.002 µM) was 0.793, the relative viability (Calu-6; first compound 0.006325 µM) was 0.88 and the relative viability (Calu-6; first compound 0.02 µM) was 1.01. The relative viability (Calu-6; first compound 0.06325 µM) was 0.109, the relative viability (Calu-6; first compound 0.2 µM) was 0.097 and the relative viability (NCI-H1703; first compound 0.002 µM) was 0.806. The relative viability (NCI-H1703; first compound 0.006325 µM) was 0.653, the relative viability (NCI-H1703; first compound 0.02 µM) was 0.367 and the relative viability (NCI-H1703; first compound 0.06325 µM) was 0.119. The relative viability (NCI-H1703; first compound 0.2 µM) was 0.0858, the relative viability (HCC-44; first compound 0.002 µM) was 0.843 and the relative viability (HCC-44; first compound 0.006325 µM) was 0.768. The relative viability (HCC-44; first compound 0.02 µM) was 1, the relative viability (HCC-44; first compound 0.06325 µM) was 0.12 and the relative viability (HCC-44; first compound 0.2 µM) was 0.091. For the same compound, the relative viability (IA-LM; first compound 0.002 µM) was 0.753, the relative viability (IA-LM; first compound 0.006325 µM) was 0.848 and the relative viability (IA-LM; first compound 0.02 µM) was 1. For the same compound, the relative viability (IA-LM; first compound 0.06325 µM) was 0.0538 and the relative viability (IA-LM; first compound 0.2 µM) was 0.04.
`CCNC(=O)c1noc(-c2cc(C(C)C)c(O)cc2O)c1-c1ccc(CN2CCOCC2)cc1` [Luminespib] + C[C@]1(O)C[C@@H](c2nc(-c3ccc4ccc(-c5ccccc5)nc4c3)c3c(N)nccn32)C1 [Linsitinib] (partner 1 µM) gave a relative viability (NCI-H1299; first compound 0.002 µM) of 0.978, a relative viability (NCI-H1299; first compound 0.006325 µM) of 0.935 and a relative viability (NCI-H1299; first compound 0.02 µM) of 0.989. The relative viability (NCI-H1299; first compound 0.06325 µM) was 0.582, the relative viability (NCI-H1299; first compound 0.2 µM) was 0.451 and the relative viability (A549; first compound 0.002 µM) was 0.645. For the same compound, the relative viability (A549; first compound 0.006325 µM) was 0.583, the relative viability (A549; first compound 0.02 µM) was 0.236 and the relative viability (A549; first compound 0.06325 µM) was 0.14. The relative viability (A549; first compound 0.2 µM) was 0.0621, the relative viability (NCI-H1563; first compound 0.002 µM) was 1.34 and the relative viability (NCI-H1563; first compound 0.006325 µM) was 1.13. The relative viability (NCI-H1563; first compound 0.02 µM) was 1.11, the relative viability (NCI-H1563; first compound 0.06325 µM) was 0.535 and the relative viability (NCI-H1563; first compound 0.2 µM) was 0.542. It also gave a relative viability (EBC-1; first compound 0.002 µM) of 0.919, a relative viability (EBC-1; first compound 0.006325 µM) of 0.89 and a relative viability (EBC-1; first compound 0.02 µM) of 0.273. The relative viability (EBC-1; first compound 0.06325 µM) was 0.0912, the relative viability (EBC-1; first compound 0.2 µM) was 0.0942 and the relative viability (NCI-H2087; first compound 0.002 µM) was 1.01. It also gave a relative viability (NCI-H2087; first compound 0.006325 µM) of 0.714, a relative viability (NCI-H2087; first compound 0.02 µM) of 1.08 and a relative viability (NCI-H2087; first compound 0.06325 µM) of 0.263. It also gave a relative viability (NCI-H2087; first compound 0.2 µM) of 0.204, a relative viability (NCI-H322M; first compound 0.002 µM) of 0.805 and a relative viability (NCI-H322M; first compound 0.006325 µM) of 0.851. For the same compound, the relative viability (NCI-H322M; first compound 0.02 µM) was 0.725, the relative viability (NCI-H322M; first compound 0.06325 µM) was 0.998 and the relative viability (NCI-H322M; first compound 0.2 µM) was 0.963. It also gave a relative viability (HCC-78; first compound 0.002 µM) of 0.485, a relative viability (HCC-78; first compound 0.06325 µM) of 0.76 and a relative viability (HCC-78; first compound 0.2 µM) of 0.251. The relative viability (Calu-6; first compound 0.002 µM) was 1.08, the relative viability (Calu-6; first compound 0.006325 µM) was 0.783 and the relative viability (Calu-6; first compound 0.02 µM) was 0.712. For the same compound, the relative viability (Calu-6; first compound 0.06325 µM) was 0.0985, the relative viability (Calu-6; first compound 0.2 µM) was 0.0978 and the relative viability (NCI-H1703; first compound 0.002 µM) was 1.26. It also gave a relative viability (NCI-H1703; first compound 0.006325 µM) of 0.448, a relative viability (NCI-H1703; first compound 0.02 µM) of 0.426 and a relative viability (NCI-H1703; first compound 0.06325 µM) of 0.0721. The relative viability (NCI-H1703; first compound 0.2 µM) was 0.123, the relative viability (HCC-44; first compound 0.002 µM) was 0.68 and the relative viability (HCC-44; first compound 0.006325 µM) was 0.714. It also gave a relative viability (HCC-44; first compound 0.02 µM) of 0.684, a relative viability (HCC-44; first compound 0.06325 µM) of 0.251 and a relative viability (HCC-44; first compound 0.2 µM) of 0.158. For the same compound, the relative viability (IA-LM; first compound 0.002 µM) was 0.601, the relative viability (IA-LM; first compound 0.006325 µM) was 0.424 and the relative viability (IA-LM; first compound 0.02 µM) was 0.284. The relative viability (IA-LM; first compound 0.06325 µM) was 0.0358 and the relative viability (IA-LM; first compound 0.2 µM) was 0.0299.
